Source: the NIST ThermoML archive (doi:10.1016/j.jct.2015.04.021)
± gives the expanded uncertainty stated by the source.

Assay: xn = mol fraction of the nth substance listed
Conditions: 101.3 kPa, Liquid, Pycnometric method

SMILES | mass density (303.15 K, x1 = 0.75) | mass density (303.15 K, x1 = 0.8) | mass density (303.15 K, x1 = 0.833) | mass density (313.15 K, x1 = 0.75) | mass density (313.15 K, x1 = 0.8) | mass density (313.15 K, x1 = 0.833) | mass density (323.15 K, x1 = 0.75) | mass density (323.15 K, x1 = 0.8) | mass density (323.15 K, x1 = 0.833) | mass density (333.15 K, x1 = 0.75) | mass density (333.15 K, x1 = 0.8) | mass density (333.15 K, x1 = 0.833)
CC(=O)CCC(=O)O [4-oxopentanoic acid] + C[N+](C)(C)CCO.[Cl-] | 1134.6 ± 1.1 kg/m3 | 1134.1 ± 1.1 kg/m3 | 1133.7 ± 1.1 kg/m3 | 1127.6 ± 1.1 kg/m3 | 1127.3 ± 1.1 kg/m3 | 1127 ± 1.1 kg/m3 | 1120.9 ± 1.2 kg/m3 | 1120.4 ± 1.2 kg/m3 | 1120.2 ± 1.2 kg/m3 | 1113.8 ± 1.2 kg/m3 | 1113.1 ± 1.2 kg/m3 | 1113 ± 1.2 kg/m3
OCc1ccco1 [2-hydroxymethylfuran] + C[N+](C)(C)CCO.[Cl-] | 1131.8 ± 1.3 kg/m3 | 1131.5 ± 1.3 kg/m3 | 1130.9 ± 1.3 kg/m3 | 1125.2 ± 1.3 kg/m3 | 1124.3 ± 1.3 kg/m3 | 1123.8 ± 1.3 kg/m3 | 1118.6 ± 1.3 kg/m3 | 1117.1 ± 1.3 kg/m3 | 1116.6 ± 1.3 kg/m3 | 1112 ± 1.3 kg/m3 | 1109.9 ± 1.3 kg/m3 | 1109.5 ± 1.3 kg/m3
